Assay results: US8221728B2, “Silanic para-aminobenzalmalonate-substituted s-triazine compounds and photoprotective compositions comprised thereof” (L'Oreal, priority 2004, dated 2012)
Values joined by “and” are separate entries in the source; they are usually repeats but may differ in a detail not shown here. Equal values may be shown once.

What was measured:
[1] = UV absorption spectrum in ethanol; assay type: physicochemical
Description: 2,4,6-Tris(diethyl 4′-aminobenzalmalonate)-s-triazine (1 g, […]) (Example 1 of Application EP 0,507,691) is dissolved in 5 ml of trimethylsilylethyl alcohol while sparging with nitrogen. The mixture is subsequently heated at reflux for 25 hours with 0.2 g of para-toluenesulphonic acid. After addition of 30 ml of dichloromethane, the organic phase is washed with water and then with an aqueous sodium bicarbonate solution, and dried. It is concentrated under reduced pressure. The residue obtained is purified by chromatography on a silica column (eluent: heptane/AcOEt 85/15). 0.35 g (Yield 32%) of the derivative of Example 2 is collected in the form of a pale yellow gum: • UV (ethanol) λ max=355 nm; ε max=125 250;E1%=965. […]

[2] = Photostability of a film of 5% solution in Miglyol 812 under Oriel solar simulator, HPLC quantification; assay type: physicochemical; conditions: 5% by weight in Miglyol 812, 1 mg/cm^2 film, irradiated one hour, solar simulator UV-A=14.2 mW/cm^2, UV-B=0.41 mW/cm^2
Description: The two products were dissolved at 5% by weight in the oil Miglyol 812. Approximately 10 mg of oily solution are spread over 10 cm^2 at the surface of a hollow disc of frosted glass; the amount is determined by weighing.
The films of the oily solutions are irradiated for one hour using an Oriel solar simulator (UV-A=14.2 mW/cm^2; UV-B=0.41 mW/cm^2), then extracted with 10 ml of ethanol comprising 10% of isopropanol and subjected to ultrasound for 5 min. The products are quantified by HPLC of the extracts.
HPLC conditions: column: UP5WOD-25QS, 250×4.6 mm, 5 μm, Interchrom; eluent: methanol (Comparative Example 1) and 96% of methanol+4% of water (Example 1); flow rate: 1 ml/min; volume injected: 10 μl; detection: diode array; rt (min): 5.2 (Comparative Example 1) and 13.8 (Example 1).
The degrees of loss are determined by comparison of the amounts of product present in the irradiated samples and in the non-irradiated controls prepared simultaneously and treated in the same way (means over 3 samples; S=surface/mg solution): % loss=100×(So−Sirr)/So

Compound | E1% [1] | ε max [1] | λ max [1] [nm] | % of disappearance (% loss) [2]
2,4,6-tris(di(trimethylsilylmethyl) 4′-aminobenzalmalonate)-s-triazine [Example 1] | 987 | 118 970 | 355 | –
CC(C)COC(=O)C(=Cc1ccc(Nc2nc(Nc3ccc(C=C(C(=O)OCC(C)C)C(=O)OCC(C)C)cc3)nc(Nc3ccc(C=C(C(=O)OCC(C)C)C(=O)OCC(C)C)cc3)n2)cc1)C(=O)OCC(C)C [Compound (prior art), 2,4,6-Tris(diisobutyl 4′-aminobenzalmalonate)-s-triazine] | – | – | – | 11% and 10% and 9%
C[Si](C)(C)CCOC(=O)C(=Cc1ccc(Nc2nc(Nc3ccc(C=C(C(=O)OCC[Si](C)(C)C)C(=O)OCC[Si](C)(C)C)cc3)nc(Nc3ccc(C=C(C(=O)OCC[Si](C)(C)C)C(=O)OCC[Si](C)(C)C)cc3)n2)cc1)C(=O)OCC[Si](C)(C)C [Example 2, 2,4,6-tris(di(trimethylsilylethyl) 4′-aminobenzalmalonate)-s-triazine] | 965 | 125 250 | 355 | –
